Values quoted from earlier work in patent publication US8133904B2, “Cannabinoid receptor antagonists/inverse agonists useful for treating obesity” (Jenrin Discovery, Inc., priority 2007, dated 2012).

Settings: patients with type 2 diabetes not treated with other anti-diabetic medications; after six months of treatment; baseline value 7.9

SMILES: Cc1c(C(=O)NN2CCCCC2)nn(-c2ccc(Cl)cc2Cl)c1-c1ccc(Cl)cc1 [rimonabant]
- HbA1c levels lowered: 0.8%
